Experimental data taken from PubChem BioAssay AID248 (DTP/NCI, 2004).
“And” between values parts separate entries of the source, which are not always exact repeats. Identical values can stand only once. Toxic doses and inconclusive results are not listed. Cut-off read from the data, not from the text of the source: active = T/C of 150% or more; inactive = T/C below 125%.

System: L1210 leukemia ip in BDF1 mice, survival T/C
Assay: NCI In Vivo Anticancer Drug Screen. Data for tumor model L1210 Leukemia (intraperitoneal) in B6D2F1 (BDF1) mice
Settings: endpoint: mean survival time, higher = longer survival
In short: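 Read-out is survival time, reported as the treated-group measurement over the vehicle-control measurement.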

[1] = dose: 100.0 mg/kg/injection, schedule: Q04DX003 (ip), vehicle: saline with Tween-80
[2] = dose: 200.0 mg/kg/injection, schedule: Q04DX003 (ip), vehicle: saline with Tween-80
[3] = dose: 400.0 mg/kg/injection, schedule: Q04DX003 (ip), vehicle: saline with Tween-80
[4] = dose: 25.0 mg/kg/injection, schedule: Q01DX009 (ip), vehicle: saline
[5] = dose: 50.0 mg/kg/injection, schedule: Q01DX009 (ip), vehicle: saline
[6] = dose: 100.0 mg/kg/injection, schedule: Q01DX009 (ip), vehicle: saline
[7] = dose: 50.0 mg/kg/injection, schedule: Q01DX009 (ip), vehicle: saline with Tween-80
[8] = dose: 100.0 mg/kg/injection, schedule: Q01DX009 (ip), vehicle: saline with Tween-80
[9] = dose: 200.0 mg/kg/injection, schedule: Q01DX009 (ip), vehicle: saline with Tween-80
[10] = dose: 25.0 mg/kg/injection, schedule: Q04DX002 (ip), vehicle: saline
[11] = dose: 100.0 mg/kg/injection, schedule: Q01DX001 (ip), vehicle: carboxymethylcellulose (CMC)
[12] = dose: 400.0 mg/kg/injection, schedule: Q01DX001 (ip), vehicle: carboxymethylcellulose (CMC)
[13] = dose: 50.0 mg/kg/injection, schedule: Q04DX002 (ip), vehicle: saline
[14] = dose: 100.0 mg/kg/injection, schedule: Q04DX002 (ip), vehicle: saline
[15] = dose: 100.0 mg/kg/injection, schedule: Q04DX002 (ip), vehicle: Klucel (hydroxypropylcellulose) (HPC)
[16] = dose: 200.0 mg/kg/injection, schedule: Q04DX002 (ip), vehicle: Klucel (hydroxypropylcellulose) (HPC)

Measured: T/C

CSc1ncc2cnccn12
inactive: dose: 25.0 mg/kg/injection, schedule: Q01DX009 (ip), vehicle: water 95 % of control | dose: 25.0 mg/kg/injection, schedule: Q04DX003 (ip), vehicle: saline 106 % of control | dose: 50.0 mg/kg/injection, schedule: Q01DX009 (ip), vehicle: water 102 % of control | dose: 50.0 mg/kg/injection, schedule: Q04DX003 (ip), vehicle: saline 101 % of control | dose: 100.0 mg/kg/injection, schedule: Q01DX009 (ip), vehicle: water 102 % of control | dose: 100.0 mg/kg/injection, schedule: Q04DX003 (ip), vehicle: saline 101 % of control | dose: 100.0 mg/kg/injection, schedule: Q04DX003 (ip), vehicle: water 93 % of control

c1ccc(CN2CCOCC2)nc1
inactive: dose: 100.0 mg/kg/injection, schedule: Q01DX001 (ip), vehicle: saline 96 % of control | dose: 200.0 mg/kg/injection, schedule: Q01DX001 (ip), vehicle: saline 113 % of control | dose: 400.0 mg/kg/injection, schedule: Q01DX001 (ip), vehicle: saline 98 % of control

COc1cccc(C2CCCCCC2OS(=O)(=O)c2ccc(C)cc2)c1OC (stereo not drawn)
inactive: dose: 100.0 mg/kg/injection, schedule: Q04DX003 (ip), vehicle: acetone 110 % of control | dose: 200.0 mg/kg/injection, schedule: Q04DX003 (ip), vehicle: acetone 98 % of control | dose: 400.0 mg/kg/injection, schedule: Q04DX003 (ip), vehicle: acetone 103 % of control

O=C(Nc1ccc(F)cc1)Nc1cc([N+](=O)[O-])ccc1F
inactive: dose: 100.0 mg/kg/injection, schedule: Q04DX003 (ip), vehicle: Klucel (hydroxypropylcellulose) (HPC) 117 % of control | dose: 200.0 mg/kg/injection, schedule: Q04DX003 (ip), vehicle: Klucel (hydroxypropylcellulose) (HPC) 102 % of control | dose: 400.0 mg/kg/injection, schedule: Q04DX003 (ip), vehicle: Klucel (hydroxypropylcellulose) (HPC) 101 % of control

O=C(O)c1ccccc1Nc1cccc(C(F)(F)F)c1
inactive: [1] 104 % of control | [2] 104 % of control | [3] 104 % of control

O=C(C[n+]1ccccc1)N/N=C/c1ccc(Cl)c(Cl)c1
inactive: [4] 94 % of control | [5] 102 % of control | [6] 102 % of control

CC(=O)COCC1CO1 (stereo not drawn)
inactive: [7] 92 % of control | [8] 92 % of control | [9] 100 % of control

CC1NCCCNCCCNC(C)c2cccc1n2 (stereo not drawn)
inactive: dose: 12.5 mg/kg/injection, schedule: Q04DX002 (ip), vehicle: saline 92 % of control | [10] 89 % of control

Cn1c2c(c(=O)[nH]c1=O)OCN(Cc1ccccc1)C2
inactive: dose: 50.0 mg/kg/injection, schedule: Q01DX001 (ip), vehicle: carboxymethylcellulose (CMC) 91 % of control | [11] 100 % of control | dose: 200.0 mg/kg/injection, schedule: Q01DX001 (ip), vehicle: carboxymethylcellulose (CMC) 94 % of control | [12] 100 % of control

Clc1ccc(NP(Br)(c2ccccc2)(c2ccccc2)c2ccccc2)cc1
inactive: dose: 75.0 mg/kg/injection, schedule: Q01DX001 (ip), vehicle: other 107 % of control | dose: 150.0 mg/kg/injection, schedule: Q01DX001 (ip), vehicle: other 104 % of control | dose: 300.0 mg/kg/injection, schedule: Q01DX001 (ip), vehicle: other 101 % of control

OC(c1ccc(Br)cc1)(c1cccs1)C1CC1 (stereo not drawn)
inactive: [8] 98 % of control | [1] 103 % of control | [9] 98 % of control | [2] 100 % of control | dose: 400.0 mg/kg/injection, schedule: Q01DX009 (ip), vehicle: saline with Tween-80 98 % of control | [3] 97 % of control

COc1ccc(NC(=O)Oc2ccc(Cl)c(C)c2)cc1
inactive: [1] 93 % of control | [2] 90 % of control | [3] 88 % of control

O=C(/C=C/c1ccccc1)c1ccc(Cl)c(Cl)c1
inactive: [7] 101 % of control | [8] 101 % of control | [9] 97 % of control

C=COC(N)=O
inactive: dose: 33.0 mg/kg/injection, schedule: Q01DX001 (ip), vehicle: saline 116 % of control | dose: 50.0 mg/kg/injection, schedule: Q01DX001 (ip), vehicle: saline 117 % of control | dose: 75.0 mg/kg/injection, schedule: Q01DX001 (ip), vehicle: saline 121 % of control | dose: 113.0 mg/kg/injection, schedule: Q01DX001 (ip), vehicle: saline 111 % of control

O=C(COc1ccc(Cl)c(Cl)c1)Nc1ccc[n+](Cc2ccc(Cl)cc2S(=O)(=O)F)c1
inactive: [1] 97 % of control | [2] 94 % of control | [3] 101 % of control

NC(=O)c1ccc[n+](CCO)c1
inactive: dose: 3.1 mg/kg/injection, schedule: Q01DX009 (ip), vehicle: saline 102 % of control | dose: 6.25 mg/kg/injection, schedule: Q01DX009 (ip), vehicle: saline 104 % of control | dose: 12.5 mg/kg/injection, schedule: Q01DX009 (ip), vehicle: saline 98 % of control | [4] 104 % of control | [5] 110 % of control | [6] 100 % of control | dose: 115.0 mg/kg/injection, schedule: Q01DX Z (ip), vehicle: saline 100 % of control | dose: 150.0 mg/kg/injection, schedule: Q04DX003 (ip), vehicle: saline 100 % of control | dose: 175.0 mg/kg/injection, schedule: Q01DX Z (ip), vehicle: saline 94 % of control | dose: 225.0 mg/kg/injection, schedule: Q04DX003 (ip), vehicle: saline 104 % of control | dose: 265.0 mg/kg/injection, schedule: Q01DX Z (ip), vehicle: saline 105 % of control | dose: 335.0 mg/kg/injection, schedule: Q04DX003 (ip), vehicle: saline 100 % of control | dose: 400.0 mg/kg/injection, schedule: Q01DX Z (ip), vehicle: saline 100 % of control

NC1=NCCS1
inactive: [10] 103 % of control | [13] 110 % of control | [14] 95 % of control and 103 % of control

Cc1ccc(S(=O)(=O)O/N=C(/C#N)c2ccccc2)cc1
inactive: [15] 111 % of control | [16] 97 % of control | dose: 400.0 mg/kg/injection, schedule: Q04DX002 (ip), vehicle: Klucel (hydroxypropylcellulose) (HPC) 101 % of control

C/C(=N\OC(=O)Nc1ccccc1)c1ccccc1
inactive: [11] 98 % of control | [12] 95 % of control

O=NN1C(=O)C2CC3CC(C2)CC1C3
inactive: dose: 3.12 mg/kg/injection, schedule: Q01DX009 (ip), vehicle: saline with Tween-80 91 % of control | dose: 6.25 mg/kg/injection, schedule: Q01DX009 (ip), vehicle: saline with Tween-80 107 % of control | dose: 12.5 mg/kg/injection, schedule: Q01DX009 (ip), vehicle: saline with Tween-80 96 % of control

CC(=O)OC1CC(n2cc(C)c(=O)[nH]c2=O)OC1COP(=O)(N1CC1(C)C)N1CC1(C)C (stereo not drawn)
inactive: [13] 110 % of control | [14] 112 % of control | dose: 200.0 mg/kg/injection, schedule: Q04DX002 (ip), vehicle: saline 123 % of control

Cc1c([N+](=O)[O-])cc(C(C)(C)C)c(OC(=O)C(Cl)(Cl)Cl)c1[N+](=O)[O-]
inactive: [15] 95 % of control | [16] 91 % of control

CCOC(=O)Sc1ncnc2nc[nH]c12
inactive: dose: 10.0 mg/kg/injection, schedule: Q01DX Z (ip), vehicle: carboxymethylcellulose (CMC) 117 % of control
